Test results taken from patent US9938262B2, “Benzamides” (Merck Patent GmbH, priority 2011, dated 2018).
pEC50: −log10 of the molar value.

Biological target: T1, FSHR (Homo sapiens, UniProt P23945)
T1 construct: expressed in transfected cells; host or cells: CHO (Cho-FSHR-LUC-1-1-43)
Experiment: EC50 of cyclic AMP production in CHO FSHR cells + EC20 FSH (Assay A)
Type: cell-based
Details: Table 1; for pEC50: CHO FSHR cells + EC20 FSH, read-out: Assay A EC50 of cyclic AMP production; for activation at 5 µM: 1 h, effect relative to maximum response of the FSH standard
Method: Example 10: EC50 of Cyclic AMP Production in CHO FSHR Cells+EC20 FSH (Assay A)
2500 Cho-FSHR-LUC-1-1-43 cells were plated per well in 5 μl of phenol red free DMEM/F12+1% FBS. Cells were plated in 384 well, solid white low volume plates (Greiner 784075) by Multidrop. Cells were assayed by adding 100 μl of 2×EC20 FSH/IBMX in DMEM/F12+0.1% BSA) by Multidrop to 2 μl of test compound stamped in 384 well plates (compounds are diluted 1:50). The final FSH concentration was […], and the final IBMX concentration was 200 μM. The compound plate map was as follows: Column 1: 2 μl of DMSO; Column 2: 2 μl of DMSO; Columns 3-12 and 13-24: 2 μl of test compound, diluted 1:4 in 100% DMSO, or 2 μl of FSH, diluted 1:4 in DMEM/F12+0.1% BSA. The starting concentration for FSH was 50 nM (final concentration was 0.5 nM). […] 5 μl of compound+EC20 FSH mixture were transferred to cell plates (1:2 dilution into 5 μl of cell media) The plates were incubated at 37° C. for 1 h. 10 μl of mixed HTRF (CisBio #62AM4PEC) reagents were added per well and incubated at room temperature for 1 h. The plates were read on Envision using the cAMP HTRF—low volume 384 well protocol. The readout was the calculated fluorescence ratio (665 nm/620 nm). Values given in percent (%) indicate the percental effect (response) at a certain concentration of agonist relative to the maximum response of the FSH standard.

T1 sequence (P23945 18-695): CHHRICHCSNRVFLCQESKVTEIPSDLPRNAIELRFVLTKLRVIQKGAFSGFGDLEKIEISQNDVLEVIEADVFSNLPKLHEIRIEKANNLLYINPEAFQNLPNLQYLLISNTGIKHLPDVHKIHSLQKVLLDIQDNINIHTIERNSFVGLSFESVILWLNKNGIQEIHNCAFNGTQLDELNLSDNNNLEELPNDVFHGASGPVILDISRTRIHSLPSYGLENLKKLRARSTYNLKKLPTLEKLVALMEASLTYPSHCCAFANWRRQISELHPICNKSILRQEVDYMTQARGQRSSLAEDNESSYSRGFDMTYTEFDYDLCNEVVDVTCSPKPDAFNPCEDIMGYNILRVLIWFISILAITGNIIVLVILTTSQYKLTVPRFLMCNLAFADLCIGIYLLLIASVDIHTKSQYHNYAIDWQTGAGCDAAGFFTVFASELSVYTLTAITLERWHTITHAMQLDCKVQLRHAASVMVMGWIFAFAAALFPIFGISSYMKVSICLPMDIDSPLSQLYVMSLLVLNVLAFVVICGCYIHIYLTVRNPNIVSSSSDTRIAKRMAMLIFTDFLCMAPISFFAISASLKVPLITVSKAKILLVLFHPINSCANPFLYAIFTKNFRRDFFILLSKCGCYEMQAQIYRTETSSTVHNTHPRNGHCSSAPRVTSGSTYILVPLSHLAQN
T1 sequence (P01215 25-116 partner): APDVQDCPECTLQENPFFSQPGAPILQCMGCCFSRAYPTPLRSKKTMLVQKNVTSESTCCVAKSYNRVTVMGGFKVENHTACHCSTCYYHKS
T1 sequence (P01225 19-129 partner): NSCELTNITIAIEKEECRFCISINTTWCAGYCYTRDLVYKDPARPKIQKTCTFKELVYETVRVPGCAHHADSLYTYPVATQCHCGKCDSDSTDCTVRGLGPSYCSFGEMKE

Row | Compound | pEC50 | activation at 5 µM
1 | Cc1cc(C(=O)Nc2cc(C(=O)NCCCN3CCCC3=O)ccc2N2CCN(c3ccccc3C)CC2)c(C(F)(F)F)o1 [Compound 1] | 6.00 to 7.00 | 
2 | Cc1ccccc1N1CCN(c2ccc(C(=O)NCCCN3CCCC3=O)cc2NC(=O)c2sccc2Br)CC1 [Compound 4] | 5.00 to 6.00 | 
3 | Cc1ccccc1N1CCN(c2ccc(C(=O)NCCCN3CCCC3=O)cc2NC(=O)c2occc2Br)CC1 [Compound 7] | 5.00 to 6.00 | 
4 | Cc1ccccc1N1CCN(c2ccc(C(=O)NCCc3c[nH]c4ccccc34)cc2NC(=O)c2ccco2)CC1 [Compound 10, Furan-2-carboxylic acid [5-[2-(1H-indol-3-yl)-ethylcarbamoyl]-2-(4-o-tolyl-piperazin-1-yl)-phenyl]-amide] |  | 39%
5 | Cc1ccccc1N1CCN(c2ccc(C(=O)N[C@@H](C)c3ccccc3)cc2NC(=O)c2ccco2)CC1 [Compound 11, furan-2-carboxylic acid [5-((S)-1-phenyl-ethylcarbamoyl)-2-(4-o-tolyl-piperazin-1-yl)-phenyl]-amide] | 6.00 to 7.00 | 
6 | Cc1ccccc1N1CCN(c2ccc(C(=O)N3CCN(C(=O)OC(C)(C)C)CC3)cc2NC(=O)c2ccco2)CC1 [Compound 12] |  | 7%
7 | Cc1ccccc1N1CCN(c2ccc(C(=O)NCCCN3CCCC3=O)cc2NC(=O)c2ccc(-c3ccccc3)o2)CC1 [Compound 13] |  | 14%
8 | Cc1cc(C(=O)Nc2cc(C(=O)NCCCN3CCCC3=O)ccc2N2CCN(c3ccccc3C)CC2)c(C)o1 [Compound 14] | 6.00 to 7.00 | 
9 | COc1ccc(CNC(=O)c2ccc(N3CCN(c4ccccc4C)CC3)c(NC(=O)c3ccco3)c2)cc1OC [Compound 17] | 6.00 to 7.00 | 
10 | Cc1ccccc1N1CCN(c2ccc(C(=O)NCCCN3CCCC3=O)cc2NC(=O)c2ccccc2Cl)CC1 [Compound 19] | 5.00 to 6.00 | 
11 | Cc1ccccc1N1CCN(c2ccc(C(=O)NCCCN3CCCC3=O)cc2NC(=O)c2cccs2)CC1 [Compound 20] | 6.00 to 7.00 | 
12 | Cc1ccccc1N1CCN(c2ccc(C(=O)N[C@@H]3CCCN(C(=O)OC(C)(C)C)C3)cc2NC(=O)c2ccco2)CC1 [Compound 21] |  | 22%
13 | Cc1ccccc1N1CCN(c2ccc(C(=O)N[C@@H]3CCCNC3)cc2NC(=O)c2ccco2)CC1 [Compound 22] | 5.00 to 6.00 | 
14 | CC(=O)N1CCN(C(=O)c2ccc(N3CCN(c4ccccc4C)CC3)c(NC(=O)c3ccco3)c2)CC1 [Compound 23] |  | 4%
15 | Cc1ccccc1N1CCN(c2ccc(C(=O)NCCCN3CCCC3=O)cc2NC(=O)c2ccc[nH]2)CC1 [Compound 24] | 5.00 to 6.00 | 
16 | Cc1ccccc1N1CCN(c2ccc(C(=O)NCCCN3CCCC3=O)cc2NC(=O)c2cnc(Br)s2)CC1 [Compound 25] | 5.00 to 6.00 | 
17 | Cc1ccccc1N1CCN(c2ccc(C(=O)NCCCN3CCCC3=O)cc2NC(=O)CC(C)C)CC1 [Compound 26] | 5.00 to 6.00 | 
18 | Cc1ccccc1N1CCN(c2ccc(C(=O)NCCCN3CCCC3=O)cc2NC(=O)c2cccc(Cl)c2)CC1 [Compound 28] | 5.00 to 6.00 | 
19 | Cc1ccccc1N1CCN(c2ccc(C(=O)NCCCN3CCCC3=O)cc2NC(=O)c2ccc(Cl)cc2)CC1 [Compound 29] | 6.00 to 7.00 | 
20 | Cc1ccccc1N1CCN(c2ccc(C(=O)NCCCN3CCCC3=O)cc2NC(=O)c2cccc(F)c2)CC1 [Compound 30] | 5.00 to 6.00 | 
21 | Cc1ccccc1N1CCN(c2ccc(C(=O)NCCCN3CCCC3=O)cc2NC(=O)c2ccc(C#N)cc2)CC1 [Compound 33] | 5.00 to 6.00 | 
22 | Cc1cccc(C(=O)Nc2cc(C(=O)NCCCN3CCCC3=O)ccc2N2CCN(c3ccccc3C)CC2)c1 [Compound 34] | 5.00 to 6.00 | 
23 | Cc1ccccc1N1CCN(c2ccc(C(=O)NCCCN3CCCC3=O)cc2NC(=O)c2cccnc2)CC1 [Compound 37] |  | 37%
24 | Cc1ccccc1N1CCN(c2ccc(C(=O)NCCCN3CCCC3=O)cc2NC(=O)c2cccc(C(F)(F)F)c2)CC1 [Compound 39] |  | 15%
25 | Cc1ccccc1N1CCN(c2ccc(C(=O)NCCCN3CCCC3=O)cc2NC(=O)c2ccc(C(F)(F)F)cc2)CC1 [Compound 40] |  | 40%

Results, then the compound that gave them:

Row | pEC50 | activation at 5 µM | Compound
26 | 5.00 to 6.00 |  | COc1ccccc1C(=O)Nc1cc(C(=O)NCCCN2CCCC2=O)ccc1N1CCN(c2ccccc2C)CC1 [Compound 41]
27 | 6.00 to 7.00 |  | COc1ccc(C(=O)Nc2cc(C(=O)NCCCN3CCCC3=O)ccc2N2CCN(c3ccccc3C)CC2)cc1 [Compound 42]
28 |  | 44% | Cc1ccccc1N1CCN(c2ccc(C(=O)NCCCN3CCCC3=O)cc2NC(=O)c2ccc3ccccc3c2)CC1 [Compound 43]
29 |  | 44% | Cc1ccccc1N1CCN(c2ccc(C(=O)NCCCN3CCCC3=O)cc2NC(=O)c2cccc3cccnc23)CC1 [Compound 44]
30 |  | 10% | Cc1ccccc1N1CCN(c2ccc(C(=O)NCCCN3CCCC3=O)cc2NS(=O)(=O)c2ccco2)CC1 [Compound 46]
31 | 5.00 to 6.00 |  | CCNC(=O)N1CCC[C@@H](NC(=O)c2ccc(N3CCN(c4ccccc4C)CC3)c(NC(=O)c3ccco3)c2)C1 [Compound 48, (R)-3-[3-[(furan-2-carbonyl)-amino]-4-(4-o-tolyl-piperazin-1-yl)-benzoylamino]-piperidine-1-carboxylic acid ethylamide]
32 | 6.00 to 7.00 |  | Cc1ccccc1N1CCN(c2ccc(C(=O)NC3CCN(C(=O)OC(C)(C)C)CC3)cc2NC(=O)c2ccco2)CC1 [Compound 49, 4-[3-[(Furan-2-carbonyl)-amino]-4-(4-o-tolyl-piperazin-1-yl)-benzoylamino]-piperidine-1-carboxylic acid tert-butyl ester]
33 |  | 39% | Cc1cc(C)c(C(=O)Nc2cc(C(=O)NCCCN3CCCC3=O)ccc2N2CCN(c3ccccc3C)CC2)o1 [Compound 51]
34 | 5.00 to 6.00 |  | CNC[C@@H](NC(=O)c1ccc(N2CCN(c3ccccc3C)CC2)c(NC(=O)c2ccco2)c1)c1ccc(Cl)cc1 [Compound 55, Furan-2-carboxylic acid [5-[(S)-1-(4-chloro-phenyl)-2-methylamino-ethylcarbamoyl]-2-(4-o-tolyl-piperazin-1-yl)-phenyl]-amide]
35 | 5.00 to 6.00 |  | CC(=O)N1CCC(NC(=O)c2ccc(N3CCN(c4ccccc4C)CC3)c(NC(=O)c3ccco3)c2)CC1 [Compound 56, Furan-2-carboxylic acid [5-(1-acetyl-piperidin-4-ylcarbamoyl)-2-(4-o-tolyl-piperazin-1-yl)-phenyl]-amide]
36 | 5.00 to 6.00 |  | CC(=O)N(C)C[C@@H](NC(=O)c1ccc(N2CCN(c3ccccc3C)CC2)c(NC(=O)c2ccco2)c1)c1ccc(Cl)cc1 [Compound 57]
37 | 5.00 to 6.00 |  | COc1ccc(C(=O)Nc2cc(C(=O)NCCCN3CCCC3=O)ccc2N2CCN(c3ccccc3C)CC2)c(OC)c1 [Compound 59]
38 |  | 42% | CCOC(=O)N1CCN(c2ccc(C(=O)NCCCN3CCCC3=O)cc2NC(=O)c2ccco2)CC1 [Compound 62, 4-{2-[(Furan-2-carbonyl)-amino]-4-[3-(2-oxo-pyrrolidin-1-yl)-propylcarbamoyl]-phenyl}-piperazine-1-carboxylic acid ethyl ester]
39 |  | 72% | Cc1ccccc1N1CCN(c2ccc(C(=O)NCCN(C)C(=O)OC(C)(C)C)cc2NC(=O)c2ccco2)CC1 [Compound 64, {2-[3-[(Furan-2-carbonyl)-amino]-4-(4-o-tolyl-piperazin-1-yl)-benzoylamino]-ethyl}-methyl-carbamic acid tert-butyl ester]
40 | 5.00 to 6.00 |  | CCOc1cc(CCNC(=O)c2ccc(N3CCN(c4ccccc4C)CC3)c(NC(=O)c3ccco3)c2)ccc1OC [Compound 65]
41 | 6.00 to 7.00 |  | Cc1ccccc1N1CCN(c2ccc(C(=O)N[C@H](CO)c3ccccc3)cc2NC(=O)c2ccco2)CC1 [Compound 67, Furan-2-carboxylic acid [5-((S)-2-hydroxy-1-phenyl-ethylcarbamoyl)-2-(4-o-tolyl-piperazin-1-yl)-phenyl]-amide]
42 | 5.00 to 6.00 |  | Cc1ccccc1N1CCN(c2ccc(C(=O)NCCCN3CCCC3=O)cc2NC(=O)c2ccoc2C)CC1 [Compound 68]
43 | 6.00 to 7.00 |  | Cc1ccccc1N1CCN(c2ccc(C(=O)NCCCN3CCCC3=O)cc2NC(=O)c2ccsc2)CC1 [Compound 69]
44 | < 5.00 |  | Cc1ccccc1N1CCN(c2ccc(C(=O)NCCCN3CCCC3=O)cc2NC(=O)c2scnc2C)CC1 [Compound 70]
45 | 5.00 to 6.00 |  | Cc1nc(C(F)(F)F)c(C(=O)Nc2cc(C(=O)NCCCN3CCCC3=O)ccc2N2CCN(c3ccccc3C)CC2)s1 [Compound 71]
46 | < 5.00 |  | Cc1ccccc1N1CCN(c2ccc(C(=O)NCCCN3CCCC3=O)cc2NC(=O)c2sc(Br)nc2C)CC1 [Compound 72]
47 | 5.00 to 6.00 |  | Cc1nc(C(=O)Nc2cc(C(=O)NCCCN3CCCC3=O)ccc2N2CCN(c3ccccc3C)CC2)c(C(F)(F)F)o1 [Compound 76]
48 | 5.00 to 6.00 |  | CCc1ocnc1C(=O)Nc1cc(C(=O)NCCCN2CCCC2=O)ccc1N1CCN(c2ccccc2C)CC1 [Compound 77]
49 | 6.00 to 7.00 |  | Cc1ccccc1N1CCN(c2ccc(C(=O)NCCCN3CCCC3=O)cc2NC(=O)c2ncoc2C)CC1 [Compound 78]
50 |  | 22% | Cc1ccccc1N1CCN(c2ccc(C(=O)NCCCN3CCCC3=O)cc2NC(=O)c2conc2C)CC1 [Compound 80]
